These results are taken from patent US7282342B2, “Methods for detecting weakly immunogenic analytes” (Neuren Pharmaceuticals Ltd., priority 2001, dated 2007).

Residues, ends and D or L forms follow the SMILES beside them.

The test system of assay [1] is CK5 antibody. The assay can be described thus: modified double antibody radioimmunoassay, displacement of I125-labeled Bolton and Hunter derivatized GPE. The assay is classed as binding, rabbit. The following applies: test substances Bolton and Hunter derivatized; CK5 at 1:18,000.
Assay [2] concerns CK5 antibody. The assay is described as follows: standard double antibody radioimmunoassay, displacement of I125-labeled YGPE. To be noted: CK5 diluted 1:600; I125-labeled YGPE tracer. In kind it is binding, rabbit. The protocol: The CK5 antibody was characterized using a standard double antibody radioimmunoassay technique. Tubes containing either 100 μL 0.02 M phosphate buffered saline assay buffer or peptide (GPE, YGPE (SEQ ID NO:4), KYFGGPE (SEQ ID NO:5), or IGF-1) dissolved in assay buffer at various concentrations were preincubated with CK5 antibody (diluted at 1:600) for 24 h at 4° C. I^125-labeled YGPE (10,000 cpm) was then added to the tubes. After a further 48 h incubation at 4° C., the bound and free GPE were separated by adding donkey anti-rabbit serum (1:100). The tubes were incubated with this second antibody overnight at 4° C. before centrifugation (3,200 rpm for 30 min), after which the supernatant was aspirated, and the precipitate counted in a gamma counter. One antibody, CK5, was identified. […] Unlabeled GPE was able to displace I^125-labeled YGPE with an ED50 of approximately 200 ng/tube.

In the case of `NCC(=O)N1CCC[C@H]1C(=O)O` [GP, glycyl-L-proline] (H-Gly-Pro-OH), the “cross-reactivity with CK5 antibody” value with CK5 antibody [1] was “does not cross-react significantly”.
On to `O=C(O)CC[C@H](NC(=O)[C@@H]1CCCN1)C(=O)O` [PE, L-prolyl-L-glutamic acid] (H-Pro-Glu-OH), for which the “cross-reactivity with CK5 antibody” value in the assay with CK5 antibody [1] is on record as “does not cross-react significantly”.
Turning to `N[C@@H](CCC(=O)O)C(=O)O` [glutamic acid], the “cross-reactivity with CK5 antibody” value in the assay on CK5 antibody [1] is “does not cross-react significantly”.
Still for that read-out and setting: the result for `NCC(=O)O` [glycine] reads “does not cross-react significantly”.
On the same count and under the same terms, the entry for `O=C(O)[C@@H]1CCCN1` [proline] is “does not cross-react significantly”.
The same measure, in the same setting: the result for `NC(N)=O` [urea] reads “does not cross-react significantly”.
As for “IGF-1: insulin-like growth factor-1, the GPE parent molecule”, the “cross-reactivity with CK5 antibody” value with CK5 antibody [1] and in the assay on CK5 antibody [2] was “does not cross-react significantly” each time.
